In ChEMBL document CHEMBL4507319 (2021) one finds residual activity data, which are given here for 2 molecules.

Conditions in all cases: Compound concentration 1000.0 nM
Experiment [1] concerns the target cAMP-dependent protein kinase catalytic subunit alpha (Homo sapiens) (UniProt P17612).
Experiment [2] concerns the target Serine/threonine-protein kinase Nek6 (Homo sapiens) (UniProt Q9HC98).
Experiment [3] deals with Protein kinase C delta type (Homo sapiens) (UniProt Q05655).
Experiment [4] addresses Maternal embryonic leucine zipper kinase (Homo sapiens) (UniProt Q14680).
The subject of experiment [5] is Leucine-rich repeat serine/threonine-protein kinase 2 (Homo sapiens), Q5S007 [G2019S].
In experiment [6] the test system is Phosphatidylinositol 4,5-bisphosphate 3-kinase catalytic subunit alpha isoform (Homo sapiens), P42336 [H1047Y].
Experiment [7] addresses Ribosomal protein S6 kinase alpha-5 (Homo sapiens, UniProt O75582).
The target of experiment [8] is T1, Tyrosine-protein kinase Tec (Homo sapiens) (UniProt P42680).
T1 sequence (whole entry): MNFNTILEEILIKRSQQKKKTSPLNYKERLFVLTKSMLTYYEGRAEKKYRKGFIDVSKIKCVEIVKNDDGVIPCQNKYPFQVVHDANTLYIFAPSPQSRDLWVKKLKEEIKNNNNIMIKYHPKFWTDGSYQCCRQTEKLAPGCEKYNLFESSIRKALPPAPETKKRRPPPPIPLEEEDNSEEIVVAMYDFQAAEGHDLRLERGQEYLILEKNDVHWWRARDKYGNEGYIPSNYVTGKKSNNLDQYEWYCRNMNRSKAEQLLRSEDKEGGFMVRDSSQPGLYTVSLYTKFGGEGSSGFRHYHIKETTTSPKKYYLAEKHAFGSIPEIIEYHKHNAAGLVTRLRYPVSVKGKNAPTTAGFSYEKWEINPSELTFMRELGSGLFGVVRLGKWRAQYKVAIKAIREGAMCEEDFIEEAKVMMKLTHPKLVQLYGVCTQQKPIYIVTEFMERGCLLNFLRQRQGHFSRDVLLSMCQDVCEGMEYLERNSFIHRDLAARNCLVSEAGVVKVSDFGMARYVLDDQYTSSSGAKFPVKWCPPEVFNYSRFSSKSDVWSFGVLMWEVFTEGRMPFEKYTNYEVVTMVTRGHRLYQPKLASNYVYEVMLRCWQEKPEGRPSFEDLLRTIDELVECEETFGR

For experiment [9], the target named is Calcium/calmodulin-dependent protein kinase type 1G (Homo sapiens) (UniProt Q96NX5).
Experiment [10] has as its target Tyrosine-protein kinase Fes/Fps (Homo sapiens) (UniProt P07332).
Experiment [11] deals with MAP kinase-interacting serine/threonine-protein kinase 2 (Homo sapiens) (UniProt Q9HBH9).
Experiment [12] addresses Vascular endothelial growth factor receptor 2 (Homo sapiens) (UniProt P35968).
The test system of experiment [13] is Epidermal growth factor receptor (Homo sapiens), P00533 [L858R,T790M].
The target of experiment [14] is Phosphatidylinositol 4,5-bisphosphate 3-kinase catalytic subunit delta isoform (Homo sapiens) (UniProt O00329).
Experiment [15] addresses Serine/threonine-protein kinase Nek5 (Homo sapiens) (UniProt Q6P3R8).
Experiment [16] deals with Tyrosine-protein kinase ABL1 (Homo sapiens), P00519 [F317I].
In experiment [17] the target is Serine/threonine-protein kinase VRK2 (Homo sapiens) (UniProt Q86Y07).
Experiment [18] has as its target T2, Myosin light chain kinase (Homo sapiens) (UniProt Q32MK0).
T2 sequence (whole entry): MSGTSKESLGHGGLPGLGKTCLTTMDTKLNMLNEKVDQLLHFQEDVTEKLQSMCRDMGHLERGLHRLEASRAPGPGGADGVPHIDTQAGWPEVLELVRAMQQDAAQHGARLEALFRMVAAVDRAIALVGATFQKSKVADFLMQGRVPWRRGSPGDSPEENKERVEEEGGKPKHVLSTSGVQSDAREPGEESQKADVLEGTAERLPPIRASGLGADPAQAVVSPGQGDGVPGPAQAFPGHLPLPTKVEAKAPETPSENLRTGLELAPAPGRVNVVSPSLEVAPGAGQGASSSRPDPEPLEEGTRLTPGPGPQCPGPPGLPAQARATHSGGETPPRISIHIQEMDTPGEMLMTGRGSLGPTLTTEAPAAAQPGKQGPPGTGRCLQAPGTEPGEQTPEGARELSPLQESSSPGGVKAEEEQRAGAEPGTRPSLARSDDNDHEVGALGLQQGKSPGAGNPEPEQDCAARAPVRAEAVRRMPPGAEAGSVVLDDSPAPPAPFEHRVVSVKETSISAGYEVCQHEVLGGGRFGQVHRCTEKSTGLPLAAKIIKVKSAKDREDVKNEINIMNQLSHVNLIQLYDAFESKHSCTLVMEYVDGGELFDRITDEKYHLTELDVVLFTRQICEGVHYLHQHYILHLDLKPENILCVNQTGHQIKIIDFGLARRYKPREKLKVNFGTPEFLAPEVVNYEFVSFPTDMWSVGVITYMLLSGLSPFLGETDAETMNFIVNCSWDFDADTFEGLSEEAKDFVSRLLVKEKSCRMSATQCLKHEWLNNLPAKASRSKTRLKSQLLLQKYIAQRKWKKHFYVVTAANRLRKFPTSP

The target in experiment [19] is Tyrosine-protein kinase receptor Tie-1 (Homo sapiens) (UniProt P35590).
Experiment [20] deals with Serine/threonine-protein kinase MRCK alpha (Homo sapiens) (UniProt Q5VT25).

Ribosomal protein S6 kinase alpha-5, sequence (O75582 whole entry, looked up): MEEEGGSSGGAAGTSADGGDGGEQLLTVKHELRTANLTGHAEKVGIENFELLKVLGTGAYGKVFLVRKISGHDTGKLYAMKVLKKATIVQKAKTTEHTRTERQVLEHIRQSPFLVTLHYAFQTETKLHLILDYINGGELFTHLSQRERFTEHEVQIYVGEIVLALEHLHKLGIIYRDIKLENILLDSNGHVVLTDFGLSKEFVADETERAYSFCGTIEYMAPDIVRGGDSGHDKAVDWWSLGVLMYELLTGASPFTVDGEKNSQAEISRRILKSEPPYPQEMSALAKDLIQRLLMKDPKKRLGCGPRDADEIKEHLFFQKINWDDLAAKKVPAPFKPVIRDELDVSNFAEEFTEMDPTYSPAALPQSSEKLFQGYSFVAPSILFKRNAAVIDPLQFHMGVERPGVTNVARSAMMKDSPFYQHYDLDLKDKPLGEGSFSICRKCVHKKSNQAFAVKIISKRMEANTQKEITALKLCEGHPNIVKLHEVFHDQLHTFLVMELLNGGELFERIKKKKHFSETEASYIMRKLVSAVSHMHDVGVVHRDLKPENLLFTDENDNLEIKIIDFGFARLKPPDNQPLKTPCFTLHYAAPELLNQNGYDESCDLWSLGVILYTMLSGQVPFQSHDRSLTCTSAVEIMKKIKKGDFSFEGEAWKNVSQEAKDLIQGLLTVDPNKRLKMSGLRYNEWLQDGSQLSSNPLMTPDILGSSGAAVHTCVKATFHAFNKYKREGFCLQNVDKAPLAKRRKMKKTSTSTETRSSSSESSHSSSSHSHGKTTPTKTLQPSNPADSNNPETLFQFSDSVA
Tyrosine-protein kinase Fes/Fps (Homo sapiens), sequence (P07332 whole entry): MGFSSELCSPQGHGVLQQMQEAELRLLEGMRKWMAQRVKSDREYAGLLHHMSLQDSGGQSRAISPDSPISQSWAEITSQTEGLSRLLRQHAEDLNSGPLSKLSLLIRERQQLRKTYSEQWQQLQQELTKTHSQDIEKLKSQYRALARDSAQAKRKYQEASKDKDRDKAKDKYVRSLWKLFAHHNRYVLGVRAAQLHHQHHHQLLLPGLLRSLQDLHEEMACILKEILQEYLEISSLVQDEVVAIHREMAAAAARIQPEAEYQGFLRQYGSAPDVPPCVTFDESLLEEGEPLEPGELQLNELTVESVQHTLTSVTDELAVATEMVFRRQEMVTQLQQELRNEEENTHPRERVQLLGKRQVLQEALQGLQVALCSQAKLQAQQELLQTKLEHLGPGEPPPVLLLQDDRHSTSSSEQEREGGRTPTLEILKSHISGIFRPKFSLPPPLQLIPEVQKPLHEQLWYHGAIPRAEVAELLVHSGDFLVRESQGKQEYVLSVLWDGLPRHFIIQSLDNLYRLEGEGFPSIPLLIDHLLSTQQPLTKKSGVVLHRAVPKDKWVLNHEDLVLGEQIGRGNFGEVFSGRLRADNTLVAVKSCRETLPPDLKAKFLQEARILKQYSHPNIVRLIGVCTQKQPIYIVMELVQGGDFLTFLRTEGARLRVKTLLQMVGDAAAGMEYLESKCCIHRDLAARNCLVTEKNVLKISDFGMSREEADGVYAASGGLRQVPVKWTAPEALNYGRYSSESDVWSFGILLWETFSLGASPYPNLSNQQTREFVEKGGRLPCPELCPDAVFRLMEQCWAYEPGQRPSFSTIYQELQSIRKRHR
Serine/threonine-protein kinase Nek5 (Homo sapiens), sequence (Q6P3R8 whole entry): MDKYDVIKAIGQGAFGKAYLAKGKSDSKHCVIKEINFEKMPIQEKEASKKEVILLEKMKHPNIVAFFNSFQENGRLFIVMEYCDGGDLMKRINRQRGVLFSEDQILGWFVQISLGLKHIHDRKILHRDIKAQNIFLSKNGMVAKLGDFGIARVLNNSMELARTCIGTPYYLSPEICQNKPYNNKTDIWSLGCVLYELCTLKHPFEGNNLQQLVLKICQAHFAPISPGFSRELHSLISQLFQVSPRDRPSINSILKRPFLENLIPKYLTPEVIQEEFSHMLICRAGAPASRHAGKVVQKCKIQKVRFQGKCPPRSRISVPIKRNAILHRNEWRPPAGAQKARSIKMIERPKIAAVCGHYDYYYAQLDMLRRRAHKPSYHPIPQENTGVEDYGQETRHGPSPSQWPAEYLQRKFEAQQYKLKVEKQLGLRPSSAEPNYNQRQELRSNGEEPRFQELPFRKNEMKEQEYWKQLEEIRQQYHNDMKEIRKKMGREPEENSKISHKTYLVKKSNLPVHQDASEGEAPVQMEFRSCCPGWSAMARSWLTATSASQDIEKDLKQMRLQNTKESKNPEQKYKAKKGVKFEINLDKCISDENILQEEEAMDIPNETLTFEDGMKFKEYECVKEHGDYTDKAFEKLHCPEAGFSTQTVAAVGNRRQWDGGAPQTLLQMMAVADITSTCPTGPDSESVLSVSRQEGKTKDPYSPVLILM
Serine/threonine-protein kinase VRK2 (Homo sapiens), sequence (Q86Y07 whole entry): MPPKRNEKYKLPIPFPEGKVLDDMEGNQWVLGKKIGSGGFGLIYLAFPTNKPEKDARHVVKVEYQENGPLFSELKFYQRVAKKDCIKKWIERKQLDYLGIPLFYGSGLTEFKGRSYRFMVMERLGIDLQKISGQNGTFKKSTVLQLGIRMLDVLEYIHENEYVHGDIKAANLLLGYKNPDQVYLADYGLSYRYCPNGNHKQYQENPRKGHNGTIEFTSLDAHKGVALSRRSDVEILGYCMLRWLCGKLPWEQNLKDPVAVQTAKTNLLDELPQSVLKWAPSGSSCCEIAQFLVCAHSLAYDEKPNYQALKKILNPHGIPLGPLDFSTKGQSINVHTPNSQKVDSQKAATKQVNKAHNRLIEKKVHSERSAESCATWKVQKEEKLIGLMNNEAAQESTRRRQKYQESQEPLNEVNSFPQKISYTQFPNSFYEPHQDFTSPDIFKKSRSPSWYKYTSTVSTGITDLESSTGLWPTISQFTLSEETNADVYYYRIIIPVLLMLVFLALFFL
Maternal embryonic leucine zipper kinase (Homo sapiens), sequence (Q14680 whole entry, looked up): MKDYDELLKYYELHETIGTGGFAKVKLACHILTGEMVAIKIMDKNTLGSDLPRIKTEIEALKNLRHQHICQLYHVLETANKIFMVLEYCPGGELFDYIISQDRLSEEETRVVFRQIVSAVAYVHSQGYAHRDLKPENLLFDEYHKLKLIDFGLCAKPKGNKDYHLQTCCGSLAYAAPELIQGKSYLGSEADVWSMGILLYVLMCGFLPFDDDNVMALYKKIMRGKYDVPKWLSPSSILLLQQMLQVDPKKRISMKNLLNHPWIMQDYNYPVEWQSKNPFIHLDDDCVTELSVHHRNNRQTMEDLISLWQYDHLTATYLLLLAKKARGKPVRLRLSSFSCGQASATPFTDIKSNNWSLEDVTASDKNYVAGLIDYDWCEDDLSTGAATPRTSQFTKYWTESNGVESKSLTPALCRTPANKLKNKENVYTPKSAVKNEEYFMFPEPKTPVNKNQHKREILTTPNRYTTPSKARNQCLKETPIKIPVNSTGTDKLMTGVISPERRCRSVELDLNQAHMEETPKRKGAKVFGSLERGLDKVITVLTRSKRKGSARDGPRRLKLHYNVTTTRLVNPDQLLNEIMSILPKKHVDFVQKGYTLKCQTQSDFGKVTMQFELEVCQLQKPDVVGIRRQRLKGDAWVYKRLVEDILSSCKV
Phosphatidylinositol 4,5-bisphosphate 3-kinase catalytic subunit alpha isoform (Homo sapiens), P42336 [H1047Y], sequence (P42336 whole entry H1047Y, canonical isoform): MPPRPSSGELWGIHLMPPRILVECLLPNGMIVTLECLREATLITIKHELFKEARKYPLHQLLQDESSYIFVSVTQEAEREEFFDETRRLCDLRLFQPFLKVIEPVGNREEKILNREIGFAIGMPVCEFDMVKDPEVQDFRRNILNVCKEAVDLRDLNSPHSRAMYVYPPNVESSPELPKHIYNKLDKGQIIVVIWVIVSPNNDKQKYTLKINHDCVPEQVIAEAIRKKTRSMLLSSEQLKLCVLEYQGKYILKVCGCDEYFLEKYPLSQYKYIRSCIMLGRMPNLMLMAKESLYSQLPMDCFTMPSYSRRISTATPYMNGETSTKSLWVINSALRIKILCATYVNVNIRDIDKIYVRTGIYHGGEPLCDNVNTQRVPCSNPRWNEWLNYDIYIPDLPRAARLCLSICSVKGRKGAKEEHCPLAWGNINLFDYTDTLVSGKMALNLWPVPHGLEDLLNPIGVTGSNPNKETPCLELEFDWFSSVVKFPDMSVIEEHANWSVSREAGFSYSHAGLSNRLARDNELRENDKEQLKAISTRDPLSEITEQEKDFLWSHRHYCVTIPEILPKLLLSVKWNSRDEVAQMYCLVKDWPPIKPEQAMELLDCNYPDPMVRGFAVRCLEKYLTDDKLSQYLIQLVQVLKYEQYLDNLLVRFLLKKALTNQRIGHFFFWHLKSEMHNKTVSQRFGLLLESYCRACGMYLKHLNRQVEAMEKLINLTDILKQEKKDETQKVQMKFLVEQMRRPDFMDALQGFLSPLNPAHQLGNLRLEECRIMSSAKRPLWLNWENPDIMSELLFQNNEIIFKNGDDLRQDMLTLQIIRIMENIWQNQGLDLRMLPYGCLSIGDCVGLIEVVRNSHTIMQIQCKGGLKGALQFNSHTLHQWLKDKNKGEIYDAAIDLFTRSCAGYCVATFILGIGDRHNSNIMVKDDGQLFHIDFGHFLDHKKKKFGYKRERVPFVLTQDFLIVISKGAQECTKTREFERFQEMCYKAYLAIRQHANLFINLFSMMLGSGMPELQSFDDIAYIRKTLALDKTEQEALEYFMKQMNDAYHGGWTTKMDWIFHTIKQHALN
Calcium/calmodulin-dependent protein kinase type 1G (Homo sapiens), sequence (Q96NX5 whole entry): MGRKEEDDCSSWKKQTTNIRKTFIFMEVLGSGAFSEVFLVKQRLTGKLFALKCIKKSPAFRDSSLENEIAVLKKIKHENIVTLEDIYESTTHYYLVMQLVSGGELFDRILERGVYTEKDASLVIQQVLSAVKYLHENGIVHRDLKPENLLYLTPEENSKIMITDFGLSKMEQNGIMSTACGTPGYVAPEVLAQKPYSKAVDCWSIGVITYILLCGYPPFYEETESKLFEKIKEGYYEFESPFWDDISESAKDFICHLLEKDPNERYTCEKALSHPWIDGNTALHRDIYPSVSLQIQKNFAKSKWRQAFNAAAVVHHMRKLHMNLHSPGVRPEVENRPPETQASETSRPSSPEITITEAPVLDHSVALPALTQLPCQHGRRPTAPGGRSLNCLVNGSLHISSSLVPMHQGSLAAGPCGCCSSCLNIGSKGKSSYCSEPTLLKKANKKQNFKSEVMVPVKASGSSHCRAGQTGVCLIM

With `CC1=C(C#N)C(c2ccc3c(c2)c(NC(=O)c2ccccc2C)nn3C)C(C#N)=C(C)N1` [BAY-974], the residual activity in [1] was 77%; in [2], 100%; in experiment [3], 100%; in experiment [4], 81%; in experiment [5], 100%; in [6], 91%. The residual activity was 91% in experiment [7]; 100% in experiment [8]; 99% in [9]; 84% in experiment [10]; 100% in experiment [11]; 80% in experiment [12]. Further, the residual activity in [13] was 93%; in [14], 71%; in experiment [15], 100%; in experiment [16], 78%; in [17], 72%; in experiment [18], 86%. Besides, the residual activity in experiment [19] was 94%; in experiment [20], 100%.

As to `CCc1ccccc1C(=O)Nc1n[nH]c2c(C)c(F)c(C3C(C#N)=C(C)N(C)C(C)=C3C#N)cc12` [BAY-3827], the residual activity is 89% in experiment [1]; 75% in experiment [2]; 55% in experiment [3]; 43% in experiment [4]; 100% in [5]; 77% in experiment [6]. In addition, the residual activity in [7] is 1%; in experiment [8], 91%; in [9], 90%; in [10], 68%; in [11], 98%; in [12] it was 88%. The residual activity in experiment [13] was 97%; in experiment [14], 90%; in experiment [15] it was 100%; in [16] it was 100%; in experiment [17], 100%; in [18], 100%. The residual activity in experiment [19] and in [20] was 100% each time.

One may read the residual activity as the share of the control activity or signal that is left under treatment.
